Test results reported in PubChem BioAssay (NCI).
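A five-concentration, 48-hour dose response in 96-well plates underlies each endpoint, interpolated linearly between surrounding concentrations. GI50 marks 50% less growth. TGI denotes the concentration required for complete inhibition of growth.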

Tests used:
Assay in all cases: NCI tumour cell line growth inhibition, 48 h
TK-10 renal = system: TK-10 renal
EKVX NSCLC = system: EKVX NSCLC
MALME-3M melanoma = system: MALME-3M melanoma
M14 melanoma = system: M14 melanoma
MDA-MB-231 breast = system: MDA-MB-231 breast
HCC-2998 colon = system: HCC-2998 colon
MDA-MB-435 = system: MDA-MB-435
HOP-92 NSCLC = system: HOP-92 NSCLC

What does the source list for CC(=O)C1CC2(c3ccc(C)cc3)C(c3ccc(C)cc3)=C(c3ccc(C)cc3)C1(c1ccc(C)cc1)S2=O (configuration not stated)?
GI50 (TK-10 renal): > 100 µM; TGI (TK-10 renal): > 100 µM; GI50 (EKVX NSCLC): > 100 µM; TGI (EKVX NSCLC): > 100 µM; GI50 (MALME-3M melanoma): > 100 µM; TGI (MALME-3M melanoma): > 100 µM; GI50 (M14 melanoma): > 100 µM; TGI (M14 melanoma): > 100 µM; GI50 (MDA-MB-231 breast): > 100 µM; TGI (MDA-MB-231 breast): > 100 µM; GI50 (HCC-2998 colon): > 100 µM; TGI (HCC-2998 colon): > 100 µM; GI50 (MDA-MB-435): > 100 µM; TGI (MDA-MB-435): > 100 µM

For CC([C@H]1CCC2C3CCC4C[C@@H](NC=O)CC[C@]4(C)C3CC[C@@]21C)N(C)C (some centres not stated), which GI50 (TK-10 renal) is on record?
The GI50 was 10.1 µM.

What about the TGI (TK-10 renal) of the same compound?
The TGI was 24.7 µM.

And the GI50 (EKVX NSCLC)?
Its GI50 is 2.64 µM.

What about the TGI (EKVX NSCLC) of the same compound?
Its TGI is 19.1 µM.

And the GI50 (MALME-3M melanoma)?
Its GI50 is 2.18 µM.

And the TGI (MALME-3M melanoma)?
Its TGI is 4.83 µM.

And the GI50 (M14 melanoma)?
The GI50 was 1.87 µM.

And the TGI (M14 melanoma)?
The TGI was 3.55 µM.

And the GI50 (MDA-MB-231 breast)?
The GI50 was 2.38 µM.

What about the TGI (MDA-MB-231 breast) of the same compound?
Its TGI is 5.89 µM.

And the GI50 (HCC-2998 colon)?
The GI50 was 2.48 µM.

What about the TGI (HCC-2998 colon) of the same compound?
Its TGI is 7.29 µM.

What about the GI50 (HOP-92 NSCLC) of the same compound?
The GI50 was 1.13 µM.

What about the TGI (HOP-92 NSCLC) of the same compound?
Its TGI is 7.61 µM.

What about the GI50 (MDA-MB-435) of the same compound?
The GI50 was 2.29 µM.

And the TGI (MDA-MB-435)?
Its TGI is 5.86 µM.

Which TGI (TK-10 renal) does the source give for CC1(C)COCN1COC1CCCCC1 here?
The TGI was over 100 µM.

And the TGI (EKVX NSCLC)?
The TGI was over 100 µM.

And the TGI (MALME-3M melanoma)?
Its TGI is over 100 µM.

And the TGI (M14 melanoma)?
Its TGI is over 100 µM.

What about the TGI (MDA-MB-231 breast) of the same compound?
Its TGI is over 100 µM.

What about the TGI (HCC-2998 colon) of the same compound?
Its TGI is over 100 µM.

And the TGI (HOP-92 NSCLC)?
Its TGI is over 100 µM.

What about the TGI (MDA-MB-435) of the same compound?
The TGI was over 100 µM.

Which TGI (TK-10 renal) does the source give for O=C1C(=Cc2ccco2)C(=O)C2CCCCC12 (configuration not stated) here?
The TGI was over 100 µM.

What about the TGI (EKVX NSCLC) of the same compound?
Its TGI is over 100 µM.

What about the TGI (MALME-3M melanoma) of the same compound?
Its TGI is over 100 µM.

What about the TGI (M14 melanoma) of the same compound?
The TGI was over 100 µM.

What about the TGI (MDA-MB-231 breast) of the same compound?
The TGI was over 100 µM.

And the TGI (HCC-2998 colon)?
Its TGI is over 100 µM.

And the TGI (HOP-92 NSCLC)?
The TGI was over 100 µM.

And the TGI (MDA-MB-435)?
The TGI was over 100 µM.

For Nc1nc(Nc2ccc3c(c2)CC[C@@H](N2CCCC2)CC3)nn1-c1cc2c(nn1)-c1ccccc1CCC2, which GI50 (TK-10 renal) is on record?
The GI50 was 1.35 µM.

And the TGI (TK-10 renal)?
Its TGI is 2.97 µM.

What about the GI50 (EKVX NSCLC) of the same compound?
Its GI50 is 1.68 µM.

And the TGI (EKVX NSCLC)?
The TGI was 3.29 µM.

And the GI50 (M14 melanoma)?
Its GI50 is 1.43 µM.

What about the TGI (M14 melanoma) of the same compound?
The TGI was 3 µM.

What about the GI50 (MDA-MB-231 breast) of the same compound?
Its GI50 is 1.82 µM.

What about the TGI (MDA-MB-231 breast) of the same compound?
Its TGI is 3.55 µM.

And the GI50 (HCC-2998 colon)?
The GI50 was 1.61 µM.

And the TGI (HCC-2998 colon)?
Its TGI is 3.1 µM.

What about the GI50 (MDA-MB-435) of the same compound?
The GI50 was 1.69 µM.

What about the TGI (MDA-MB-435) of the same compound?
Its TGI is 3.1 µM.

With FC(F)(F)c1cccc(COCCN2CCN(Cc3cccc(C(F)(F)F)c3)CC2)c1 as the compound, how does the TGI (TK-10 renal) read?
The TGI was 27.4 µM.

And the TGI (EKVX NSCLC)?
Its TGI is 23.4 µM.

And the TGI (MALME-3M melanoma)?
The TGI was 22.5 µM.

And the TGI (M14 melanoma)?
The TGI was 94.6 µM.

What about the TGI (MDA-MB-231 breast) of the same compound?
The TGI was 44.7 µM.

And the TGI (HCC-2998 colon)?
The TGI was 32.7 µM.

For COC(=O)NC/C=C\c1nc(CC/C=C\C(=O)OC2CC3CC(=O)O[C@H](/C=C/CC(C)C)C[C@H]4CCC(C)C(C[C@H](OC)CC(C2)O3)O4)co1 (some centres not stated), which GI50 (TK-10 renal) is on record?
The GI50 was 1.55 µM.

And the TGI (TK-10 renal)?
Its TGI is 74 µM.

And the GI50 (EKVX NSCLC)?
The GI50 was under 0.01 µM.

And the TGI (EKVX NSCLC)?
The TGI was 4.8 µM.

What about the GI50 (MALME-3M melanoma) of the same compound?
The GI50 was 17.1 µM.

What about the TGI (MALME-3M melanoma) of the same compound?
The TGI was 45.1 µM.

And the GI50 (M14 melanoma)?
The GI50 was 4.27 µM.

What about the TGI (M14 melanoma) of the same compound?
Its TGI is over 100 µM.

What about the GI50 (MDA-MB-231 breast) of the same compound?
The GI50 was 11.3 µM.

What about the TGI (MDA-MB-231 breast) of the same compound?
The TGI was over 100 µM.

With O=C1C(Cl)=C(Oc2ccc([N+](=O)[O-])cc2)C(=O)c2c(O)ccc(O)c21 as the compound, how does the TGI (TK-10 renal) read?
Its TGI is over 94 µM.

What about the TGI (EKVX NSCLC) of the same compound?
Its TGI is over 100 µM.

And the TGI (MALME-3M melanoma)?
The TGI was 40.1 µM.

What about the TGI (M14 melanoma) of the same compound?
Its TGI is over 69.2 µM.

And the TGI (MDA-MB-231 breast)?
The TGI was 66 µM.

And the TGI (HCC-2998 colon)?
Its TGI is over 100 µM.

What about the TGI (HOP-92 NSCLC) of the same compound?
The TGI was 56.6 µM.

And the TGI (MDA-MB-435)?
Its TGI is over 67.8 µM.

How did the GI50 (TK-10 renal) turn out when CCC1=C[C@@H]2CN(C1)Cc1c([nH]c3ccccc13)[C@@](C(=O)OC)(c1cc3c(cc1OC)N(C=O)[C@H]1[C@@](O)(C(=O)OC)[C@H](OC(C)=O)[C@]4(CC)[C@@H]5C[C@@H]5CN5CC[C@]31[C@@H]54)C2 was run?
Its GI50 is 0.315 µM.

And the TGI (TK-10 renal)?
Its TGI is over 6.25 µM.

And the GI50 (M14 melanoma)?
Its GI50 is 0.00169 µM.

And the TGI (M14 melanoma)?
Its TGI is 0.0643 µM.

And the GI50 (MDA-MB-231 breast)?
Its GI50 is 0.00112 µM.

What about the GI50 (HCC-2998 colon) of the same compound?
The GI50 was 0.00144 µM.

What about the TGI (HCC-2998 colon) of the same compound?
Its TGI is over 6.25 µM.

And the GI50 (HOP-92 NSCLC)?
Its GI50 is 0.00629 µM.

What about the TGI (HOP-92 NSCLC) of the same compound?
Its TGI is 0.226 µM.

What about the GI50 (MDA-MB-435) of the same compound?
Its GI50 is under 0.000625 µM.

What about the TGI (MDA-MB-435) of the same compound?
Its TGI is under 0.000625 µM.

How did the GI50 (TK-10 renal) turn out when Nc1ccc(C(=O)c2ccc(N)c(Br)c2)cc1Br was run?
The GI50 was 0.567 µM.

And the TGI (TK-10 renal)?
Its TGI is 21.5 µM.

What about the GI50 (EKVX NSCLC) of the same compound?
Its GI50 is 0.536 µM.

What about the TGI (EKVX NSCLC) of the same compound?
Its TGI is over 100 µM.

What about the GI50 (M14 melanoma) of the same compound?
The GI50 was 0.32 µM.

And the TGI (M14 melanoma)?
The TGI was 72.5 µM.

What about the GI50 (MDA-MB-231 breast) of the same compound?
Its GI50 is 0.772 µM.

And the TGI (MDA-MB-231 breast)?
Its TGI is over 47.1 µM.

And the GI50 (HCC-2998 colon)?
Its GI50 is 0.381 µM.

And the TGI (HCC-2998 colon)?
Its TGI is 4.65 µM.

And the GI50 (HOP-92 NSCLC)?
Its GI50 is 0.299 µM.

What about the TGI (HOP-92 NSCLC) of the same compound?
The TGI was 5.9 µM.

And the GI50 (MDA-MB-435)?
Its GI50 is 0.207 µM.

And the TGI (MDA-MB-435)?
Its TGI is 0.49 µM.
